According to patent publication US8030320B2, “Derivatives of 1-OXO-1,2-dihydroisoquinoline-5-carboxamides and of 4-OXO-3,4-dihydroquinazoline-8-carboxamides, preparation thereof and application thereof in therapeutics” (Sanofi-Aventis, priority 2007, dated 2011):
Where a name gives a salt, the structure may show the parent alone.

Tests used:
[1] = molecular target: T1, purified recombinant form of human BACE1 aspartyl protease (Homo sapiens, UniProt P56817); assay: BACE-1 FRET assay, in vitro inhibition of β-secretase activity; format: biochemical; details: peptide substrate 0.25 μM, enzyme 10 nM, sodium acetate buffer pH 4.5, 60 min, ambient temperature; read-out: IC50 (concentration of product giving 50% inhibition of the enzyme activity)
T1 construct: hexahistidine (His6) (C); made in house; host or cells: Drosophila cells
Procedure: The tests consisted in measuring the in vitro inhibition of the β-secretase activity by the compounds of the invention, via the use of the “BACE-1 FRET Assay Kit, Red” available from PanVera-Invitrogen Inc. The β-secretase activity measured corresponds to that of a purified recombinant form of human BACE1 aspartyl protease (the latter comprising a hexahistidine tag at the C-terminal position) produced by expression in Drosophila cells. The purified enzyme is conditioned in TRIS buffer (18 mM) at pH 7.5 containing NaCl (0.45M), MnCl2 (0.9 mM), CaCl2 (0.9 mM), α-D-methylmannoside and 10% glycerol, and stored at −80° C. until use. The BACE1 activity is measured from the cleavage of a fluorogenic peptide substrate sold by Invitrogen (PanVera BACE1/β-secretase FRET assay kit, Red; reference P2985), based on the principle of fluorescence resonance energy transfer (FRET) and corresponding to the Rh-EVNLDAEFK-Quencher sequence; the cleavage of the peptide is measured from the increase of the fluorescent signal emitted by the rhodamine derivative (Rh). The test is carried out in a 96-well microplate in order to determine the inhibition of the enzyme activity by the products of the invention. […] When the incubation is finished, the fluorescence is measured in a spectrofluorimeter, at the excitation wavelength of about 543 nm and emission wavelength of about 585 nm. […]

T1 sequence (P56817 46-501): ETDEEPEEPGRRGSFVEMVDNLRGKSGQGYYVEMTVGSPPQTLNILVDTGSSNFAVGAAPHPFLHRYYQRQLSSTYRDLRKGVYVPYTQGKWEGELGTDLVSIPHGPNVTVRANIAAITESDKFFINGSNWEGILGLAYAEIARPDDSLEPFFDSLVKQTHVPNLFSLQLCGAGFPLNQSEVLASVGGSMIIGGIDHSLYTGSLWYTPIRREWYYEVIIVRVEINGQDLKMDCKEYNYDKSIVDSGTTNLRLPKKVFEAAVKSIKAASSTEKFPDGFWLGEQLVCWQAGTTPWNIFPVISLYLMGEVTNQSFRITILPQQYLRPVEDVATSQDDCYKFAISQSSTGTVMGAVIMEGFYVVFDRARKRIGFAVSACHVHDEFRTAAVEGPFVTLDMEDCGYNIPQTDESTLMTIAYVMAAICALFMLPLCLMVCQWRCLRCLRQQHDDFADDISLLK

## CCCC(CCC)n1ccc2c(C(=O)N[C@@H](Cc3ccccc3)[C@H](O)CNCc3cccc(C(F)(F)F)c3)cccc2c1=O [Compound 1, N-[(1S,2R)-1-benzyl-2-hydroxy-3-{[3-(trifluoromethyl)benzyl]-amino}propyl]-1-oxo-2-(1-propylbutyl)-1,2-dihydroisoquinoline-5-carboxamide hydrochloride (1:1)]
[1]
  IC50: 2600 nM

## CCCC(CCC)n1cnc2c(C(=O)N[C@@H](Cc3ccccc3)[C@H](O)CNCc3cccc(C(F)(F)F)c3)cccc2c1=O.Cl [Compound 3, N-[(1S,2R)-1-benzyl-2-hydroxy-3-{[3-(trifluoromethyl)benzyl]-amino}propyl]-4-oxo-3-(1-propylbutyl)-3,4-dihydroquinazoline-8-carboxamide hydrochloride (1:1)]
[1]
  IC50: 830 nM
other
  melting point: 152 °C
